Columns and labels:
L1210 murine leukemia [1] = experiment: Activity against L1210 murine leukemia, intraperitoneal implanted tumor; format: in vivo, CDF1 mice; details: single intraperitoneal dose on Day 1, at the dose producing the maximum effect, median survival time vs saline controls
Protocol: (§1) The platinum complexes according to the present invention were tested for antitumor activity against L1210 murine leukemia. CDF1 mice weighing 20 grams were inoculated intraperitoneally or intracerebrally with 10⁶ or 10⁵ ascites cells of L1210 leukemia, respectively.
(§2) Drug administration was initiated the day following intra-peritoneal tumor implantation or 3 days following intracerebral implant. The complexes were administered at various dose levels by intraperitoneal injection. Groups of 4 to 6 mice were used for each dose level, and they were treated with a single dose of the complex on the treatment day. A group of 10 saline treated control mice were included in each experiment. Cisplatin and iproplatin treated groups were included as positive controls in each experiment.
(§3) The mice were weighed before treatment and again on day 5 or 6, and the average weight change was used as a measure of toxicity. The animals were observed daily for mortality, and the experiments terminated after 30 days. Antitumor activity was determined based on percent T/C, which is the ratio of the median survival time of the drug treated group to the median survival time of the saline treated control group times 100.
(§4) A complex was considered active if it produced a T/C greater than or equal to 125 percent. […]

[2] = tested on: B16-F10 murine melanoma cells; experiment: In vitro cytotoxicity, crystal violet staining after 72 hours incubation; format: cell-based
Protocol: (§5) The cytotoxic activity of the platinum complexes were evaluated in vitro using B16-F10 murine melanoma cells and HCT-116 human colon carcinoma cells. The B16-F10 cell line was maintained cultured in Eagle's Minimum Essential Medium (MEM) with Earle's salts (Gibco; Grand Island, NY) enriched with 2 millimoles of L-glutamine, 2.06 millimoles of sodium pyruvate, insulin (0.26 units/ml), penicillin/streptomycin (10 units/milliliter and 10 micrograms/milliliter, respectively), MEM non-essential amino acids (0.6% Gibco; Grand Island, NY), and 10% fetal bovine serum (Hyclone; Logan, UT). The HCT-116 cells were grown in McCoy's 5A medium (modified, Gibco; Grand Island, NY) supplemented with 2 millimoles of L-glutamine, 0.12 millimoles of L-serine, 0.17 millimoles of asparagine, 1.5 millimoles of sodium pyruvate, MEM essential amino acids (0.67%, Gibco; Grand Island, NY), MEM vitamins (0.6%, Gibco; Grand Island, NY), fetal calf serum (10%, Hyclone; Logan, UT), and penicillin/streptomycin (10 units/milliliter and 10 micrograms/milliter, respectively). Both cell lines were incubated at 37°C in 5% CO₂/balance air high-humidity incubator.
(§6) Logarithmically growing cells were then harvested by mild trypsinization, and 4000 cells were added to each well of a 96-well microtiter plate (Costar; Cambridge, MA). The plates were incubated at 37°C in 5% CO₂ overnight to permit cell attachment to the plate. The cells were then treated with a platinum complex according to the present invention, cisplatin, or iproplatin and then incubated for 72 hours. After incubating, the plates were inverted and shaken to remove media, drug, and detached cells. Formalin (10%) in phosphate buffered saline was added and the cells fixed for 10 minutes. The fixative was then removed, the plates air dried, stained with 0.0075% crystal violet for 15 minutes, washed twice, and air dried. The stain is solubilized with 0.2 milliliters of 0.2 Molar AcOH/EtOH (1:1) and optical densities determined using a Dynatech MR600 microtiter plate reader (Dynatech; Chantilly, VA). IC50 values are calculated by linear regression analysis of absorption data.
(§7) For the above described in vitro cytotoxicity studies, the compounds are dissolved or suspended, depending on their solubility, in 0.9% Sodium Chloride or 10% ethanol in 0.9% Sodium Chloride. The compounds are prepared for in vivo treatment by dissolving or suspending in water (minimal amounts of Tween 80), 0.9% Sodium Chloride, or 10% ethanol in 0.9% Sodium Chloride. Olive oil or cotton seed oil are used for in vivo studies when the compounds are oil soluble compounds (see, for example, in Table 8, an oil soluble compound in olive oil, Example 9 (2-ethylhexanoate derivative), below).

[3] = tested on: HCT-116 human colon carcinoma cells; experiment: as above; format: cell-based; details: HCT-116 cells
Protocol: as §5, §6, §7

L1210 murine leukemia [4] = experiment: Activity against L1210 murine leukemia, intracerebral implanted tumor; format: in vivo, CDF1 mice; details: single intraperitoneal dose on Day 3, at the dose producing the maximum effect, median survival time vs saline controls
Protocol: as §1, §2, §3, §4

P388 murine leukemia = experiment: Activity against P388 murine leukemia, intravenous inoculation, oral treatment; format: in vivo, CDF1 mice; details: administered orally (by gavage) 1 time on Day 1; at the dose producing the maximum effect; median survival time vs saline controls
Protocol: The platinum complexes according to the present invention were tested for antitumor activity against P388 murine leukemia. CDF1 mice weighing 20 grams were inoculated intravenously with 10⁶ ascites cells of P388 leukemia.
Drug administration of the platinum complexes was initiated on the day following the intravenous tumor inoculation. The complexes were administered at various dosage levels by oral gavage. Groups of 6 mice were used for each dose level, and they were treated with a single dose of the complex on the treatment day. A group of 10 saline treated control mice were included in each experiment. Cisplatin treated groups were included as positive controls in each experiment.
as §3
A complex was considered active if it produced a T/C greater than or equal to 125 percent.
For the above described in vitro cytotoxicity studies, the compounds are dissolved or suspended, depending on their solubility, in 0.9% Sodium Chloride or 10% ethanol in 0.9% Sodium Chloride. […]

M5076 sarcoma = experiment: Activity against M5076 sarcoma, subcutaneous implant; format: in vivo, BDF1 mice; details: Days 5, 9, 13, and 17, at the dose producing the maximum effect; for MAXIMUM % T/C: median survival time vs controls; for MAXIMUM T-C: median time for tumors to reach 1 gram relative to controls
Protocol: Platinum complexes according to the present invention were additionally evaluated for further antitumor activity against M5076 sarcoma. BDF1 mice, 8 per group, were inoculated subcutaneously with a fragment of M5076 sarcoma.
Intraperitoneal or intravenous treatment with the complexes was initiated 5 days after implant and was continued on days 9, 13, and 17 for a total of 4 treatments. From 4 to 6 doses were tested for each compound under study.
A saline treated control group and cisplatin treated groups were included in each experiment. The mice were observed daily for survivors, and the experiments terminated after 75-80 days.
Antitumor activity was determined based on a) median survival time of the drug treated mice relative to that of the controls (percent T/C) and b) the median time for tumors to reach 1 gram in drug treated mice relative to the controls (T-C). A complex was considered active if it produced a T-C greater than or equal to 13 days.
as §7

Molecule | MAXIMUM % T/C (L1210 murine leukemia [1]) | IC50 B16 [2] | IC50 HCT116 [3] | MAXIMUM % T/C (L1210 murine leukemia [4]) [%] | MAXIMUM % T/C (P388 murine leukemia) [%] | MAXIMUM % T/C (M5076 sarcoma; route ip) | MAXIMUM T-C (M5076 sarcoma; route ip) [days] | MAXIMUM % T/C (M5076 sarcoma; route iv) | MAXIMUM T-C (M5076 sarcoma; route iv) [days]
N.N.[Cl][Pt][Cl] [Cisplatin] | 143-207% | 5.4-7.3 micrograms/milliter | 4.2-4.5 micrograms/milliter | 114 | 173 | 126% | 33 | 114-126% | 25 to 27.3
Iproplatin | 143-171% | 66.8-243 micrograms/milliter | 20.2-31.2 micrograms/milliter | 157 |  | 160+^b % | 34.5 |  | 

Reference: patent EP0423707A2, “Platinum complexes” (Bristol-Myers Squibb Company, priority 1989, dated 1991)
